For the experiment, the target named is T1, human SSTR5 (Homo sapiens, UniProt P35346).
T1 construct: expressed in transfected cells
The experiment in a line: Evaluation of human SSTR5 antagonist activity using intracellular cAMP concentration as index. It counts as cell-based. The conditions noted are these: 1 μM test compound; CHO (dhfr-) cells stably expressing human SSTR5; 0.1 nM somatostatin 28, 0.3 μM forskolin; cAMP HTRF; read-out: Inhibition rate against SSTR5 at 1 μM. As for the experimental part: Evaluation of Human SSTR5 Antagonist Activity Using Intracellular cAMP Concentration as Index
The intracellular cAMP concentration was measured using HTRF cAMP dynamic 2 kit (Cisbio Bioassays). Each test compound diluted with an assay buffer (HBSS (Invitrogen Corp.) containing 5 mM HEPES (pH 7.5) (Invitrogen Corp.), 0.1% fatty-acid free BSA (Sigma-Aldrich Corp.), and 500 μM IBMX (Wako Pure Chemical Industries, Ltd.)) was added at a concentration of 2 μL/well to a 384-well white plate (Greiner Bio-One Co., Ltd.) to give the final concentration of 1 μM. A frozen stock of CHO (dhfr-) cells stably expressing the human SSTR5 gene (Accession No. NM_001053) was thawed in a thermostat bath of 37° C. and suspended in a subculture medium (MEM alpha (Wako Pure Chemical Industries, Ltd.), 10% dialyzed serum (Gemini Bio-Products), and 50 μg/mL gentamicin (Invitrogen Corp.). After centrifugation of the cell suspension, the cells were resuspended in an assay buffer and added at a concentration of 2 μL/well (about 4,000 cells/well) to the plate. The compound and the cells were incubated for 15 minutes, and then, an assay buffer containing 0.1 nM (final concentration) somatostatin 28 (Toray Research Center) and 0.3 μM (final concentration) forskolin (Wako Pure Chemical Industries, Ltd.) was added thereto at a concentration of 2 μL/well, followed by incubation at room temperature for 30 minutes. cAMP-d2 and anti-cAMP-cryptate were each added thereto at a concentration of 3 μL/well. The plate was left standing at room temperature for 60 minutes. Then, the fluorescence resonance energy transfer (FRET) intensity was measured using Multi-label reader Envision (PerkinElmer). The FRET intensity of the wells supplemented with the test compound group was converted to a cAMP concentration using a calibration curve prepared from the FRET intensity of a well group containing an assay buffer supplemented with an arbitrary concentration of cAMP. The inhibitory activity of each compound was calculated according to the following expression: Inhibitory activity (%)=(C−B)/(A−B)×100 A: cAMP concentration calculated from the wells supplemented with 0.3 μM forskolin B: cAMP concentration calculated from the wells supplemented with 0.3 μM forskolin and 0.1 nM somatostatin 28 C: cAMP concentration calculated from the wells supplemented with 0.3 μM forskolin, 0.1 nM somatostatin 28, and 1 μM test compound
In general terms: In TR-FRET formats the signal depends on donor and acceptor labels being close together.

SMILES strings stand for the structures.

T1 sequence (P35346 whole entry): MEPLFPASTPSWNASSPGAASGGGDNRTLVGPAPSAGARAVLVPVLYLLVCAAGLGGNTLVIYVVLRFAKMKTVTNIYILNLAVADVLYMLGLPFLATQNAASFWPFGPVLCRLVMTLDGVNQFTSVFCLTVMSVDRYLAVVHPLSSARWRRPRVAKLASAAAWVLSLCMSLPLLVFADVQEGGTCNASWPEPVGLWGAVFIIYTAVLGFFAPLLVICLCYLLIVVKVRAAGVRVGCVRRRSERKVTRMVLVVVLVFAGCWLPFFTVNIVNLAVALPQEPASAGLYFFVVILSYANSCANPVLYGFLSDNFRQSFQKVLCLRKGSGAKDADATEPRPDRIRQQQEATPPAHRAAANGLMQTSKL

As to `CCc1nc2c(cc1C(=O)O)C(=O)N(C1CCN(Cc3cc(C4CC4)c(-c4ccc(F)cc4F)cc3OC(C)C)CC1)CC2` [Example 46, 6-(1-((2-Cyclopropyl-2′,4′-difluoro-5-isopropoxybiphenyl-4-yl)methyl)piperidin-4-yl)-2-ethyl-5-oxo-5,6,7,8-tetrahydro-1,6-naphthyridine-3-carboxylic acid], the inhibition at 1 µM is 86%. In the case of `CCOc1cc(-c2ccc(F)cc2)c(C2CC2)cc1CN1CCC(N2CCc3nc(COC)c(C(=O)O)cc3C2=O)CC1` [Example 47, 6-(1-((2-Cyclopropyl-5-ethoxy-4′-fluorobiphenyl-4-yl)methyl)piperidin-4-yl)-2-(methoxymethyl)-5-oxo-5,6,7,8-tetrahydro-1,6-naphthyridine-3-carboxylic acid], the inhibition at 1 µM is 106%.

With `CCOc1cc(-c2ccc(F)cc2F)c(C2CC2)cc1CN1CCC(N2CCc3nc(COC)c(C(=O)O)cc3C2=O)CC1` [Example 48, 6-(1-((2-Cyclopropyl-5-ethoxy-2′,4′-difluorobiphenyl-4-yl)methyl)piperidin-4-yl)-2-(methoxymethyl)-5-oxo-5,6,7,8-tetrahydro-1,6-naphthyridine-3-carboxylic acid], the inhibition at 1 µM stood at 99%.

`CCOc1cc(-c2ccc(F)cc2)c(C2CC2)cc1CN1CCC(N2CCc3nc(C(C)C)c(C(=O)O)cc3C2=O)CC1` [Example 49, 6-(1-((2-Cyclopropyl-5-ethoxy-4′-fluorobiphenyl-4-yl)methyl)piperidin-4-yl)-2-isopropyl-5-oxo-5,6,7,8-tetrahydro-1,6-naphthyridine-3-carboxylic acid]: the inhibition at 1 µM came to 91%. Turning to `CC(C)Oc1cc(-c2ccc(F)cc2)c(C2CC2)cc1CN1CCC(N2CCc3nc(C(C)C)c(C(=O)O)cc3C2=O)CC1` [Example 50, 6-(1-((2-Cyclopropyl-4′-fluoro-5-isopropoxybiphenyl-4-yl)methyl)piperidin-4-yl)-2-isopropyl-5-oxo-5,6,7,8-tetrahydro-1,6-naphthyridine-3-carboxylic acid], the inhibition at 1 µM is 99%. For the compound `CCCc1nc2c(cc1C(=O)O)C(=O)N(C1CCN(Cc3cc(C4CC4)c(C4CC4)cc3OCC)CC1)CC2` [Example 51, 6-(1-(4,5-Dicyclopropyl-2-ethoxybenzyl)piperidin-4-yl)-5-oxo-2-propyl-5,6,7,8-tetrahydro-1,6-naphthyridine-3-carboxylic acid], the inhibition at 1 µM amounted to 103%. On to `CCCc1nc2c(cc1C(=O)O)C(=O)N(C1CCN(Cc3cc(C4CC4)c(C4CCC4)cc3OCC)CC1)CC2` [Example 52, 6-(1-(4-Cyclobutyl-5-cyclopropyl-2-ethoxybenzyl)piperidin-4-yl)-5-oxo-2-propyl-5,6,7,8-tetrahydro-1,6-naphthyridine-3-carboxylic acid], for which the inhibition at 1 µM amounted to 114%. For `CCOc1cc(CN2CCC(N3CCc4nc(C(=O)O)ccc4C3=O)CC2)cc(OCC)c1-c1ccc(F)cc1` [Example 53, 6-(1-((2,6-Diethoxy-4′-fluorobiphenyl-4-yl)methyl)piperidin-4-yl)-5-oxo-5,6,7,8-tetrahydro-1,6-naphthyridine-2-carboxylic acid], the inhibition at 1 µM turned out to be 108%. For `CCOc1cc(-c2ccc(F)cc2)c(C2CC2)cc1CN1CCC(N2CCc3nc(C(=O)O)ccc3C2=O)CC1` [Example 54, 6-(1-((2-Cyclopropyl-5-ethoxy-4′-fluorobiphenyl-4-yl)methyl)piperidin-4-yl)-5-oxo-5,6,7,8-tetrahydro-1,6-naphthyridine-2-carboxylic acid], the inhibition at 1 µM worked out at 123%.

Take `CCCOc1cc(CN2CCC(N3CCc4nc(CCC)c(C(=O)O)cc4C3=O)CC2)cc(C2CC2)c1-c1ccc(F)cc1` [Example 61, 6-(1-((2-Cyclopropyl-4′-fluoro-6-propoxybiphenyl-4-yl)methyl)piperidin-4-yl)-5-oxo-2-propyl-5,6,7,8-tetrahydro-1,6-naphthyridine-3-carboxylic acid]: the inhibition at 1 µM was found to be 96%. As to `CCCc1nc2c(cc1C(=O)O)C(=O)N(C1CCN(Cc3cc(OCC)c(-c4ccc(F)c(F)c4)c(C4CC4)c3)CC1)CC2` [Example 62, 6-(1-((2-Cyclopropyl-6-ethoxy-3′,4′-difluorobiphenyl-4-yl)methyl)piperidin-4-yl)-5-oxo-2-propyl-5,6,7,8-tetrahydro-1,6-naphthyridine-3-carboxylic acid], the inhibition at 1 µM was determined as 92%.

In the case of `CCCc1nc2c(cc1C(=O)O)C(=O)N(C1CCN(Cc3cc(OC(C)C)c(-c4ccc(F)cc4)c(C4CC4)c3)CC1)CC2` [Example 63, 6-(1-((2-Cyclopropyl-4′-fluoro-6-isopropoxybiphenyl-4-yl)methyl)piperidin-4-yl)-5-oxo-2-propyl-5,6,7,8-tetrahydro-1,6-naphthyridine-3-carboxylic acid], the inhibition at 1 µM amounted to 97%. As for `CCCc1nc2c(cc1C(=O)O)C(=O)N(C1CCN(Cc3cc(OCC)c(-c4ccc(F)cc4F)c(C4CC4)c3)CC1)CC2` [Example 64, 6-(1-((2-Cyclopropyl-6-ethoxy-2′,4′-difluorobiphenyl-4-yl)methyl)piperidin-4-yl)-5-oxo-2-propyl-5,6,7,8-tetrahydro-1,6-naphthyridine-3-carboxylic acid], the inhibition at 1 µM stood at 89%. For `CCCc1nc2c(cc1C(=O)O)C(=O)N(C1CCN(Cc3cc(C4CC4)c(-c4ccc(F)cc4F)c(F)c3OC)CC1)CC2` [Example 65, 6-(1-((6-Cyclopropyl-2,2′,4′-trifluoro-3-methoxybiphenyl-4-yl)methyl)piperidin-4-yl)-5-oxo-2-propyl-5,6,7,8-tetrahydro-1,6-naphthyridine-3-carboxylic acid], the inhibition at 1 µM came out at 86%. For `CCc1nc2c(cc1C(=O)O)C(=O)N(C1CCN(Cc3cc(C4CC4)c(-c4ccc(F)cc4F)c(Cl)c3OC)CC1)CC2` [Example 66, 6-(1-((2-Chloro-6-cyclopropyl-2′,4′-difluoro-3-methoxybiphenyl-4-yl)methyl)piperidin-4-yl)-2-ethyl-5-oxo-5,6,7,8-tetrahydro-1,6-naphthyridine-3-carboxylic acid], the inhibition at 1 µM came out at 64%. With `CCCc1nc2c(cc1C(=O)O)C(=O)N(C1CCN(Cc3cc(C4CC4)c(-c4ccc(F)cc4)c(F)c3OC)CC1)CC2` [Example 81, 6-(1-((6-Cyclopropyl-2,4′-difluoro-3-methoxybiphenyl-4-yl)methyl)piperidin-4-yl)-5-oxo-2-propyl-5,6,7,8-tetrahydro-1,6-naphthyridine-3-carboxylic acid] the figure was 82%.

The term inhibition denotes the change of the read-out against control, counted positive when it falls.

The values above are taken from patent US9751878B2, “Tetrahydronaphthyridine somatostatin receptor 5 antagonists” (Takeda Pharmaceutical Company Limited, priority 2013, dated 2017).
